These results are taken from patent EP0719267B1, “SECOND MESSENGER CELL SIGNALING INHIBITORS” (CELL THERAPEUTICS, INC., priority 1993, dated 1994).

Molecules are shown by their SMILES. Entries after “also recorded” stand apart in the source; their conditions may differ.

In test [1] the test system is murine cytotoxic T-cell line, CT6. Put plainly: Cytokine-induced proliferation of the cytotoxic T-cell line CT6 / CT-6.1. It is filed as cell-based. To be noted: for IC50: Mus musculus, T-cell, CT-6.1 cells; for inhibition of direct IL-2-induced proliferation: added one hour prior to IL-2, thymidine at 48 hours. Put shortly: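 IL-2-dependent murine CT6/CT-6.1 cells deprived of IL-2 (24 h or overnight), then stimulated with IL-2 (15 U/ml or 20 ng/ml), IL-4 (50 ng/ml) or IL-7 (25 ng/ml) with compound at various concentrations. Proliferation by ³H-TdR incorporation (4 h pulse from 20 h, or at 48 h); viable counts up to 8 days with 2 µM compound.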

The test system of a further test is C57BL/6 splenocytes. The test can be described thus: Antigen specific anergy induction (splenocytes with 2PK3 B cell tumor, restimulation). It is filed as cell-based, murine. The method, then: A B cell tumor, 2PK3 (H-2d) was used as a stimulating cell for C57BL/6 splenocytes (H-2b), a responding cell. Mixed cultures of B-cell tumor and splenocytes were incubated for 5 days with and without 1 µM of compound no. 45. After 5 days, the cells were washed and resuspended with either media, the original antigen (2PK3) or anti-CD3. Tritiated thymidine was added to the resulting suspensions and thymidine incorporation measured 24 hours later. As illustrated, culture treated with inventive compound no. […] However, cultures incubated with inventive compound no. […] Thus, C57BL/6 splenocytes were inhibited from responding to an original antigen by the inventive compound used in the pre-incubation step.
As shown in figures 56A and 56B, inventive compound no. 45 also induces antigen specific T-cell anergy. Procedurally, murine splenocytes were stimulated with an alloantigen target cell line 2PK3 in the presence or absence of compound no. 45 (1 µM; approximate IC50). Following 5 days in culture, the cells were washed, re-cultured and restimulated with the original priming antigen and anti-CD3 monoclonal antibody. […] 45 during the five day primary culture. […] Although cells pretreated with inventive compound no. 45 could respond normally to polyclonal stimulation, those that were challenged with the alloantigen could not. Therefore, compound no. 45 induced a specific state of unresponsiveness or anergy to the alloantigen.

Another test concerns ICAM-1. Put plainly: ICAM expression on TNF-stimulated HUVEC (flow cytometry). It is filed as cell-based, human. The method, then:
Assay results reported in figures 63A and 63B, illustrate that inventive compound no. […] HUVEC were stimulated with TNFα (20 ng/ml) for 5 hours and stained using fluorescent antibodies to ICAM-1 or VCAM-1. Cell surface expression was analyzed by flow cytometry. All values were normalized to the peak mean fluorescence of the positive control (=100%). Average levels of induction using TNFα- stimulation were 20-fold higher for ICAM-1 and over 50-fold higher for VCAM-1 from that of nonstimulated controls, as shown in figures 63 and 63B.
Figures 73A and 73B illustrate inhibition by inventive compound no. 58 of VCAM or ICAM expression, respectively, in HUVEC activated by TNF. Cells were stimulated for 8 hours in the presence or absence of inventive compounds and stained with fluorescent antibodies to VCAM or ICAM and analyzed by flow cytometry.

Test [2] concerns murine mixed tumor lymophocyte culture (MTLC). The test can be described thus: Mixed tumor lymphocyte culture (MTLC), splenocytes with 2PK3. It is filed as cell-based. On the procedure:
Figures 50A and 50B illustrate that compound no. 45 inhibits a murine mixed tumor lymophocyte culture (MTLC) and a human mixed leukocyte reaction (MLR). In the MTLC, splenocytes were stimulated (co-culture) with an alloantigen, B cell tumor target cell line (2PK3) in the presence or absence of compound no. 45. Cells were stimulated for 3 days, ^3H-TdR was added and the cells were harvested 4 hours later. Incorporation of ^3H-TdR was determined by liquid scintillation. Background counts were 1000-1200 CPM. For the human MLR, purified peripheral lymphocytes from two HLA disparate individuals were co-cultured for 6 days with or without compound no. 45. On the 7th day the cultures were pulsed with ^3HTdR for 24 hours and counted by scintillation.
In an assay related to the MTLC assay, cytokines levels were measured by ELISA from the supernatants of an MTLC culture. […] 45. Figures 60B and 60C illustrate that compound no.

Another test has as its system IL-2. Put plainly: IL-2 production in thymocytes stimulated with ConA and IL-1 (ELISA). It is filed as cell-based, murine. To be noted: ConA and IL-1, 4 days. From the text:
Thymocytes were stimulated with ConA and IL-1 for 4 days with or without adding inventive compounds to the culture media. The supernatants were removed and assayed by ELISA for IL-2 levels by a commercially available kit.

The test system of a further test is 72 kD MMP. The test can be described thus: Metalloproteinase production in TNF-α stimulated THP-1 cells (zymogram). It is filed as cell-based, human. To be noted: 2.5 µM, TNF-α 18 hours. On the procedure: (§1) Another assay measures an ability of the inventive compounds, as represented by compound no. 50, to inhibit metalloproteinase production in cancer cells. In the assay protocol, THP-1 human leukemia cells (1-2 x 10^6/35 mm dish) were plated in RPMI medium with 0.5% serum. Inventive compound no. 50 was added at 2.5 µM. Following incubation for 1 hour, TNF-α was added and incubated for 18 hours. The supernatants from control and treated plates were collected and protease activity was determined in gelatin gels (zymogram) after electrophoretic protein separation. […] The presence of compound no. […] Compound no. 50, representative of compounds of the invention, is capable of substantially reducing metastatic potential of cancer cells by blocking metalloprotease production.

For test [3], the system named is 92 kD matrix metalloprotease (MMP). The description is as above. It is filed as cell-based, human. The note with it: 2.5 µM, TNF-α 18 hours. The method, then: as §1

For the compound `CCCCCCCCNCC(O)CCCCCCCCCn1c(=O)c2c(ncn2C)n(C)c1=O` (centres unmarked) [compound no. 45], the “proliferation measured by cell number” value in test [1] (CT6.1 cells, IL-2, 2 µM, up to 8 days) is “inhibits proliferation as measured by cell number”. Moreover, the “reversibility of the effect” value in test [1] (CT6.1 cells, washed on day 4) is listed as “reversible even after 4 days in culture”. Moreover, the IC50 in test [1] (IL-2 (20 ng/ml), fig. 46) was ~800 nM; in test [1] (IL-2 (20 ng/ml), fig. 48) it was < 1000 nM; in test [1] (IL-4 (50 ng/ml)) it was < 1000 nM; in test [1] (IL-7 (25 ng/ml)), < 1000 nM; with C57BL/6 splenocytes (Mus musculus, Splenocyte, alloantigen target cell line 2PK3, read-out: approximate IC50), ~1000 nM; in test [2] (Mus musculus, 72 h, 3 days), ~500 nM. In test [1], the “inhibition of direct IL-2-induced proliferation” value is recorded as “inhibited direct IL-2-induced CT6 proliferation”. Also, in the test with C57BL/6 splenocytes (1 µM), the “response to anti-CD3 after 5 days culture with compound” value was “responded equivilantly to anti-CD3; also recorded: polyclonal T-cell response to anti-CD3 was not affected”. The “response to original/priming antigen 2PK3 after 5 days culture with compound” value in the test with C57BL/6 splenocytes (1 µM) is “decreased response to primary antigen, 2PK3; also recorded: secondary response to the priming antigen was inhibited”. Further, the “ICAM-1 cell surface expression” value with ICAM-1 (TNFα (20 ng/ml), 5 hours) is “inhibited adhesion receptor expression on HUVEC”. In test [2] (ELISA of supernatants), the IFN-γ release entry is given as “inhibited IFN-γ release”. Further, the “IL-2 or TNFα release” value in test [2] (ELISA of supernatants) is recorded as “did not inhibit either IL-2 or TNFα release from the MTLC”. In test [2] (fig. 60A), the overall proliferation result was “inhibition of overall proliferation”.

`CCCCCCCCCCCCNCC(O)CCCCCCCCCn1c(=O)c2c(ncn2C)n(C)c1=O` (centres unmarked) [compound no. 50, 1-(11-Dodecylamino-10-hydroxyundecyl)-3,7-dmethylxanthine]: in the test on IL-2, the IL-2 production entry is listed as “do not inhibit production of IL-2”. In test [1], the “inhibition of direct IL-2-induced proliferation” value was “inhibited direct IL-2-induced CT6 proliferation”. Further, in the test with 72 kD MMP, the “TNF-α-stimulated expression of 72 kD MMP” value was “blocked the TNF-α-stimulated expression of both the 92 and 72 kD MMPs”. In addition, the “TNF-α-stimulated expression of 92 kD MMP” value in test [3] is “blocked the TNF-α-stimulated expression of both the 92 and 72 kD MMPs”.

In the case of `COc1cc(CNCC(O)CCCCCCCCCn2c(=O)c3c(ncn3C)n(C)c2=O)cc(OC)c1OC` (centres unmarked) [compound no. 58, 1-[11-(3,4,5-Trimethoxybenzylamino)-10-hydroxyundecyl]-3,7-dimethylxanthine], in the test on ICAM-1 (TNF, 8 hours), the ICAM expression result is “inhibition”.
